The source made the active and inactive calls.
Key:
[1] = NIH-3T3 fibroblast cytotoxicity, dose response, cytotoxicity control, cell-based, fluorescence, Alamar Blue, secondary assay (AID 2327); type: functional;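 note: NIH-3T3 mouse fibroblasts cultured with fluconazole at 8 µg/mL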
HEK293 [2] = test: NOD1 signaling inhibitors, primary screen, cell-based, luminescence, uHTS (AID 1578); type: functional; conditions: Homo sapiens
HEK293 [3] = test: cells; type: functional, cell-based; conditions: Homo sapiens
[4] = C. albicans growth with fluconazole, confirmation, fluorescence, retest (AID 2467); type: functional, cell-based
HEK293 [5] = test: cells; type: functional, cell-based; conditions: Homo sapiens; remark: listed apart in the source
[6] = molecular target: Nucleotide-binding oligomerization domain-containing protein 2 (Homo sapiens, UniProt Q9HC29); test: NOD2 signaling inhibitors, cell-based, luminescence, uHTS, HEK293 (AID 1566); type: functional
HEK293 [7] = test: NOD2 signaling inhibitors in MDP-stimulated cells, cell-based, uHTS, luminescence (AID 2001); type: functional; conditions: Homo sapiens
HEK293 [8] = test: cells; type: functional, cell-based; conditions: Homo sapiens; remark: listed apart in the source
Saccharomyces cerevisiae = test: NALP1 inhibitor project selectivity study, Caspase-1/ASC signal blockade IC50 in S. cerevisiae (AID 488863); type: functional, organism-based
[9] = molecular target: NACHT, LRR and PYD domains-containing protein 1 (Homo sapiens, UniProt Q9C000); test: NALP1 inhibitors in yeast, dose response, luminescent (AID 488860); type: functional
Chain of NACHT, LRR and PYD domains-containing protein 1 (Q9C000 1-1212 limits assumed): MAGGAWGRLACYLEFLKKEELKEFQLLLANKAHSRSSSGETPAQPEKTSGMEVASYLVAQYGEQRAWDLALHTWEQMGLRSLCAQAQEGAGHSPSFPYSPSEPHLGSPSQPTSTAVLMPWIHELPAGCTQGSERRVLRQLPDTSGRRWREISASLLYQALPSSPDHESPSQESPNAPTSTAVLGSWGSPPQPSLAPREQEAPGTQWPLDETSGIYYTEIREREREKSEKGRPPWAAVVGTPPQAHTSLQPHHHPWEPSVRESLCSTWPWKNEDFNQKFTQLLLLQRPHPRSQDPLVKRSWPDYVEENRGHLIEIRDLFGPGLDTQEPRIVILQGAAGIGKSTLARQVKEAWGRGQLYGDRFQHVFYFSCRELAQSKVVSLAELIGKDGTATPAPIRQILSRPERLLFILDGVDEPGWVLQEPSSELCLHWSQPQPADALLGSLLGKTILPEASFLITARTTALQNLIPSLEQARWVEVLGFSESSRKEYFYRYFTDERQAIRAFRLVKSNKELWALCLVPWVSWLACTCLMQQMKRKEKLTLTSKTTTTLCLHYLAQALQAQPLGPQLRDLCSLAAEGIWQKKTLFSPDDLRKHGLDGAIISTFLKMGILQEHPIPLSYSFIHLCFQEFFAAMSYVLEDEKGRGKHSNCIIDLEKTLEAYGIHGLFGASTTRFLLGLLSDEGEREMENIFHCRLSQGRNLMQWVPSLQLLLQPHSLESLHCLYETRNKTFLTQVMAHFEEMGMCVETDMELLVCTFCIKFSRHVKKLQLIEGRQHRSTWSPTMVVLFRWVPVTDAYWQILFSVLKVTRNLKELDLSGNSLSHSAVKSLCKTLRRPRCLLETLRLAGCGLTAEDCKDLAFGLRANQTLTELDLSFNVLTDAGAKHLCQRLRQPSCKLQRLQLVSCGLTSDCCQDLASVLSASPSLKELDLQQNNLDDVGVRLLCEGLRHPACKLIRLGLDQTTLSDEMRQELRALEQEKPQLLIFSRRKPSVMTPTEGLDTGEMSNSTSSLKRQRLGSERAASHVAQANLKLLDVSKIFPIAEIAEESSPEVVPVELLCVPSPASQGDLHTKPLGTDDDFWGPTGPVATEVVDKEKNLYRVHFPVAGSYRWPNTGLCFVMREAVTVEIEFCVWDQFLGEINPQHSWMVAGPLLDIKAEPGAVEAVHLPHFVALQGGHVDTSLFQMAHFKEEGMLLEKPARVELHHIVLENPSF
Chain of NACHT, LRR and PYD domains-containing protein 1 (Q9C000 1213-1473 limits assumed): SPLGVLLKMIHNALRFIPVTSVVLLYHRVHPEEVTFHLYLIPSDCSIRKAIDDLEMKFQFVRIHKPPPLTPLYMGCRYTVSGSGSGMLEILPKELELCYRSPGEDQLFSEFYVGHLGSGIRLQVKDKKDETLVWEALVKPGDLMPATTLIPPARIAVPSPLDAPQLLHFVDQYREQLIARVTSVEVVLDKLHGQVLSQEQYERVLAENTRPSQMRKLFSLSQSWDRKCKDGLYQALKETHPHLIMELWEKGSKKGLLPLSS

[10] = molecular target: FAD-linked sulfhydryl oxidase ALR (Homo sapiens, UniProt P55789); test: inhibitors of human ALR sulfhydryl oxidase, dose response, biochemical, H2O2 detection, luminescence, cherry-pick (AID 493248)
Chain of FAD-linked sulfhydryl oxidase ALR (P55789 whole entry): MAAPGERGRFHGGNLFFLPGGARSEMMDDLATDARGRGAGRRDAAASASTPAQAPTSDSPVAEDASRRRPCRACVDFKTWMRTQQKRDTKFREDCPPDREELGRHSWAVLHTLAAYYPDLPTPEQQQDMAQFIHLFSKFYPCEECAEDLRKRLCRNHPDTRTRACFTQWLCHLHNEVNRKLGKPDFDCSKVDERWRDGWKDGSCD

[11] = molecular target: T1, Microphthalmia-associated transcription factor (Homo sapiens, UniProt O75030); test: TRPM1 promoter luciferase signal decrease, dose response, MITF inhibitor project, cell-based, SK-MEL-5, cherry-picked, set 3 (AID 493073); type: functional
T1 sequence (O75030 whole entry): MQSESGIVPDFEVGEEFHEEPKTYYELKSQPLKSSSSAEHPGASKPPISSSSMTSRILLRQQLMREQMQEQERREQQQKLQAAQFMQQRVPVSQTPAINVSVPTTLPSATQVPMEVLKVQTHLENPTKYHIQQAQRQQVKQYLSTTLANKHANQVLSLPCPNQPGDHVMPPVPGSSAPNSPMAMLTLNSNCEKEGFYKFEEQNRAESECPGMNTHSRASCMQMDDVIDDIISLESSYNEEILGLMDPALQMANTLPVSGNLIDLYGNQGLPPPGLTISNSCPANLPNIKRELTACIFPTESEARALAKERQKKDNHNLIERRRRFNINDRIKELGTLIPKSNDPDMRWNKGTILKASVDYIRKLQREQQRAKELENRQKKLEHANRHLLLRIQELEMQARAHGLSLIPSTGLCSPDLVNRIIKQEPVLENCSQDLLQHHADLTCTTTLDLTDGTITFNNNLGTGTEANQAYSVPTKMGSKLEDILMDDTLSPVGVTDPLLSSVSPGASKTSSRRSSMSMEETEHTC

[12] = molecular target: DNA dC->dU-editing enzyme APOBEC-3A (Homo sapiens, UniProt P31941); test: APOBEC3A DNA deaminase inhibitors, dose response, biochemical (AID 504722); type: functional
Chain of DNA dC->dU-editing enzyme APOBEC-3A (P31941 whole entry): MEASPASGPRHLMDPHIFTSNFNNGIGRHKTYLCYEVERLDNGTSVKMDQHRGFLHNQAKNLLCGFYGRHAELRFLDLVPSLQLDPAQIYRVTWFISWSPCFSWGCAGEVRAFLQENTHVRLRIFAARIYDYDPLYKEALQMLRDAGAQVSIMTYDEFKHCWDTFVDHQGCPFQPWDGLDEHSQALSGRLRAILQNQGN

[13] = molecular target: DNA dC->dU-editing enzyme APOBEC-3G (Homo sapiens, UniProt Q9HC16); test: Dose Response confirmation of small molecule APOBEC3G DNA Deaminase Inhibitors via a fluorescence-based single-stranded DNA deaminase assay. [Related pubchem assays (depositor defined):AID493012, AID493028]; type: functional
Chain of DNA dC->dU-editing enzyme APOBEC-3G (Q9HC16 whole entry): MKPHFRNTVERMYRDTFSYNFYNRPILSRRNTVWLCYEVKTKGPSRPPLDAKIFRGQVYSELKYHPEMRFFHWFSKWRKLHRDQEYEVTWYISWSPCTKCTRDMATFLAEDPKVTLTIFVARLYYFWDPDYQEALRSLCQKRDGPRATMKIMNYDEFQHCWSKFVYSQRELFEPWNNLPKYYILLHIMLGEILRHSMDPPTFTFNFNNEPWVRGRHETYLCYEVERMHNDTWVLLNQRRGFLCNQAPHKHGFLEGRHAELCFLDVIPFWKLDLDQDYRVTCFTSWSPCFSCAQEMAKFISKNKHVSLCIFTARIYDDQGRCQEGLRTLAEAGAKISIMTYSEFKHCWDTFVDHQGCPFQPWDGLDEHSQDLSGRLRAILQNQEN

[14] = molecular target: G-protein coupled receptor 35 (Homo sapiens, UniProt Q9HC97); test: SAR analysis of Antagonists of the GPR35 Receptor using an Image-Based Assay - Set 5. [Related pubchem assays (depositor defined):AID2058, AID2079]; type: functional
[15] = molecular target: G-protein coupled receptor 55 (Homo sapiens, UniProt Q9Y2T6); test: SAR Analysis of Selective Antagonists of GPR55 using an Image-Based Assay - Set 3. [Related pubchem assays (depositor defined):AID2058, AID2079]; type: functional
Chain of G-protein coupled receptor 55 (Q9Y2T6 whole entry): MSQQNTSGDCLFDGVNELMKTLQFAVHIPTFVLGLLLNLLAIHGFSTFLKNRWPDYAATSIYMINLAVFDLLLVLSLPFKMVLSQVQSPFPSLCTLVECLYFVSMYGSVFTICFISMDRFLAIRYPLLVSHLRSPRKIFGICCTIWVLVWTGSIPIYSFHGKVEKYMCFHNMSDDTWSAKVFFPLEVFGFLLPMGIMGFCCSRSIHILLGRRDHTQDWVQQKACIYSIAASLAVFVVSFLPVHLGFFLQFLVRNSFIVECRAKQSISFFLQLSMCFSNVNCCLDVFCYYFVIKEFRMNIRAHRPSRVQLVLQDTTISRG

[16] = molecular target: Voltage-dependent T-type calcium channel subunit alpha-1H (Homo sapiens, UniProt O95180); test: Cav3.2 T-type channel inhibitors, cell-based, synthetic library set 1, calcium flux (AID 493022); type: functional
Chain of Voltage-dependent T-type calcium channel subunit alpha-1H (O95180 whole entry): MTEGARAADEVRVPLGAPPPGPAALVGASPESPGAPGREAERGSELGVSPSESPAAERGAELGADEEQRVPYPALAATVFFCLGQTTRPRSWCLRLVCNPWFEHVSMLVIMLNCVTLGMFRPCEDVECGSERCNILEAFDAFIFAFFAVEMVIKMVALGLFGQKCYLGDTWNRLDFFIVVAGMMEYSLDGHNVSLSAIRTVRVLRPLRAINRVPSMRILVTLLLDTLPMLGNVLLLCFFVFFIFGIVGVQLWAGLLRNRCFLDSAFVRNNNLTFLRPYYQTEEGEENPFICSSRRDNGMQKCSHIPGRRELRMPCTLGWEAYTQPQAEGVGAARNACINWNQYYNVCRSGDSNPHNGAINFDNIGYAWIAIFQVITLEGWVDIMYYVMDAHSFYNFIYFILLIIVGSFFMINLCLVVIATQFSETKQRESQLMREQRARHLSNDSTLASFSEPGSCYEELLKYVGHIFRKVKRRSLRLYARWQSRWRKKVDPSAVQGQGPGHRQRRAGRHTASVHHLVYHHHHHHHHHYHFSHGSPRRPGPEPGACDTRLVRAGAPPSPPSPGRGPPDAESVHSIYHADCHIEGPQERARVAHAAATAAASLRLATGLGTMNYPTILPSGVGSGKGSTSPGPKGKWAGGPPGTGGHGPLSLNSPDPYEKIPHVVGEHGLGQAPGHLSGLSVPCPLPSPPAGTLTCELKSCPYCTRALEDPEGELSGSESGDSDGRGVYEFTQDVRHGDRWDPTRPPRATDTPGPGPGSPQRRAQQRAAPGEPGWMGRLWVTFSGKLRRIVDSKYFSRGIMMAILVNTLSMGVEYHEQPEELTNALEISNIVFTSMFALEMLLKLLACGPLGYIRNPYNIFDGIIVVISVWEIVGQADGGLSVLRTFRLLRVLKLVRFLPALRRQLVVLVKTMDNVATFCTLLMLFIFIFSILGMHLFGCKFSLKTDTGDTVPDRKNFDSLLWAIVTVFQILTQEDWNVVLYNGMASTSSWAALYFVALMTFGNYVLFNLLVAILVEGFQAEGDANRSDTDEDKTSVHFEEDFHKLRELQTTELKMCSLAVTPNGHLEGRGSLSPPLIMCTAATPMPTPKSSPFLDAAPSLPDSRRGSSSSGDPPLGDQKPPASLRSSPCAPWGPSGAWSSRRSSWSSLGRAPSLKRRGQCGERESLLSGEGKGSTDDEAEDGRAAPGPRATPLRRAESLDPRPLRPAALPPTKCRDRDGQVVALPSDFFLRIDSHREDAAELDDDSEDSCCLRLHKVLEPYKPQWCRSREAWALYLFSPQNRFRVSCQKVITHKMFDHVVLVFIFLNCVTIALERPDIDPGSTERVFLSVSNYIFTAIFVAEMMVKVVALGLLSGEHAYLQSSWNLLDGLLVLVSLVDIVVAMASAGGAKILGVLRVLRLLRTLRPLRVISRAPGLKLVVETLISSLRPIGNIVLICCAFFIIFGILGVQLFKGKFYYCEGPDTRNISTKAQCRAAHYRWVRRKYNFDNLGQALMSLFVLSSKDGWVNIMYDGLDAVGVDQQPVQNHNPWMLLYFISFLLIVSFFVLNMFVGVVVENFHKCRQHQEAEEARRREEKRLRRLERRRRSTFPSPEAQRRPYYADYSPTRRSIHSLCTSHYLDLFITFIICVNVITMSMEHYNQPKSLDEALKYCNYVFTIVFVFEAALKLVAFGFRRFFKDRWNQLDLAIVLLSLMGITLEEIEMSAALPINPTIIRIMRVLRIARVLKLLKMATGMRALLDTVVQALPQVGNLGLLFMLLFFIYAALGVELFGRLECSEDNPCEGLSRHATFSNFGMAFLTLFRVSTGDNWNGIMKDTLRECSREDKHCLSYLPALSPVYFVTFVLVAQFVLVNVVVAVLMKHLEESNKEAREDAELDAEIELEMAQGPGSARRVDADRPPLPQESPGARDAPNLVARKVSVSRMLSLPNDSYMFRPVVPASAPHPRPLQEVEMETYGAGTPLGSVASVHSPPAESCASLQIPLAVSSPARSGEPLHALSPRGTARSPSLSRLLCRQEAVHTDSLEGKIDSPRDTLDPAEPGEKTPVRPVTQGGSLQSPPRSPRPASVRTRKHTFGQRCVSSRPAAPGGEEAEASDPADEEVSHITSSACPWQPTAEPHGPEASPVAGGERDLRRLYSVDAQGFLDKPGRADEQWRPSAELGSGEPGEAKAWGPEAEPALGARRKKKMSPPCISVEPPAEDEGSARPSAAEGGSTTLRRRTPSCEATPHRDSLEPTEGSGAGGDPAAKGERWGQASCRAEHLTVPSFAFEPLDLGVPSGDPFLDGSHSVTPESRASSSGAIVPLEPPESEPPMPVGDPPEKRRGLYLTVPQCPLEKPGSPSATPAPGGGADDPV

## Nc1ccc(Oc2cccc(Oc3ccc(N)cc3)c2)cc1
[1]
  EC50: > 150 µM (inactive)
HEK293 [2]
  EC50: 5.94 µM (active)
HEK293 [3]
  IC50: 1.61 µM (active)
[4]
  EC50: > 38 µM (not active)
HEK293 [5]
  IC50: > 20 µM (inactive)
[6]
  EC50: 1.85 µM (active)
HEK293 [7]
  IC50: 3.05 µM (active)
HEK293 [8]
  IC50: 19.9 µM (active)
Saccharomyces cerevisiae
  IC50: 10.2 µM (active)
[9]
  IC50: 15.3 µM (active)
[10]
  AC50: 0.677 µM (active)
[11]
  AC50: 1.1 µM (active)

## S=c1[nH]nc(-c2ccco2)n1C1CCCCC1
[12]
  IC50: > 100 µM (inactive)
[13]
  IC50: 4.08 µM (active)
[10]
  AC50: 5.64 µM (active)

## COC(=O)c1cnn(-c2ccc(F)cc2F)c1/C=N/NC(=S)Nc1ccccc1
[14]
  IC50: 0.379 µM (active)
[15]
  IC50: > 32 µM (inactive)

## CC(Oc1ccccc1)C(=O)Nc1nnc(-c2ccc3c(c2)CCCC3)o1 (stereo not drawn)
[16]
  EC50: 1.3 µM (active)
